This note sets out measurements from patent US8044052B2, “Biaryl ether urea compounds” (Pfizer Inc., priority 2006, dated 2011).

For this test, the target named is T1, Human FAAH (Homo sapiens, UniProt O00519).
T1 construct: made in house
T1 sequence (O00519 1-579): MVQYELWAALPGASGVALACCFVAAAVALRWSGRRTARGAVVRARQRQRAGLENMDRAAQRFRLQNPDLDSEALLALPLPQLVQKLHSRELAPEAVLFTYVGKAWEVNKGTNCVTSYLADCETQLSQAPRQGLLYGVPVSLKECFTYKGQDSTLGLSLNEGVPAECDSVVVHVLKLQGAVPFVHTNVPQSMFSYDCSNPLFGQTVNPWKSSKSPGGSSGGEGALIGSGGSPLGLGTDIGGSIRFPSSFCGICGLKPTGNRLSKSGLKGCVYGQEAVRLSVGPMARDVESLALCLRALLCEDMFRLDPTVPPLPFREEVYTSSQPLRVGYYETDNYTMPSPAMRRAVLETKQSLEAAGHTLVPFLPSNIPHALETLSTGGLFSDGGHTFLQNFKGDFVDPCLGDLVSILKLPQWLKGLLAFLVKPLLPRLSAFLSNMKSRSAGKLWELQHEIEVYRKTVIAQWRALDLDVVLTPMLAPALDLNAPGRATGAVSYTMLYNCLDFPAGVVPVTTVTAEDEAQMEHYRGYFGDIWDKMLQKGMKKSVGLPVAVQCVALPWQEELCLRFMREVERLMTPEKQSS
As to the kind of experiment: FAAH assay (glutamate dehydrogenase-coupled, oleamide substrate, absorbance at 340 nm). In kind it is biochemical. The note with it: irreversible inhibition, 1-4 nM FAAH, pH 7.4, 30° C., 90 min; for kinact/KI: read-out: hFAAH kinact/Ki.

Consider `O=C(Nc1cccnc1)N1CCC(=Cc2cccc(Oc3ccc(N4CCCC4)cn3)c2)CC1` [Example 86, 4-(3-(5-(pyrrolidin-1-yl)pyridin-2-yloxy)benzylidene)-N-(pyridin-3-yl)piperidine-1-carboxamide], for which the kinact/KI came out at 856 M⁻¹ s⁻¹.
For `O=C(Nc1cccnn1)N1CCC(=Cc2cccc(Oc3ccc(N4CCC4)cn3)c2)CC1` [Example 87, 4-(3-(5-(azetidin-1-yl)pyridin-2-yloxy)benzylidene)-N-(pyridazin-3-yl)piperidine-1-carboxamide], the kinact/KI is 1840 M⁻¹ s⁻¹.
Regarding `O=C(Nc1cccnc1)N1CCC(=Cc2cccc(Oc3ccc(N4CCC4)cn3)c2)CC1` [Example 88, 4-(3-(5-(azetidin-1-yl)pyridin-2-yloxy)benzylidene)-N-(pyridin-3-yl)piperidine-1-carboxamide], the kinact/KI worked out at 3580 M⁻¹ s⁻¹.
The same measure, in the same setting: for `C#CCCCOc1ccc(Oc2cccc(C=C3CCN(C(=O)Nc4cccnc4)CC3)c2)nc1` [Example 89, 4-(3-(5-(pent-4-ynyloxy)pyridin-2-yloxy)benzylidene)-N-(pyridin-3-yl)piperidine-1-carboxamide] the value was 6450 M⁻¹ s⁻¹.
On the same count and under the same terms, for `C#CCCCOc1ccc(Oc2cccc(C=C3CCN(C(=O)Nc4cccnn4)CC3)c2)nc1` [Example 90, 4-(3-(5-(pent-4-ynyloxy)pyridin-2-yloxy)benzylidene)-N-(Pyridazin-3-yl)piperidine-1-carboxamide] the value was 7600 M⁻¹ s⁻¹; for `O=C(Nc1cccnn1)N1CCC(=Cc2cccc(Oc3ccccc3)n2)CC1` [Example 91, 4-((6-phenoxypyridin-2-yl)methylene)-N-(pyridazin-3-yl)piperidine-1-carboxamide], 636 M⁻¹ s⁻¹.
For the molecule `O=C(Nc1cccnc1)N1CCC(=Cc2cccc(Oc3ccccc3)n2)CC1` [Example 92, 4-((6-phenoxypyridin-2-yl)methylene)-N-(pyridin-3-yl)piperidine-1-carboxamide], the kinact/KI worked out at 894 M⁻¹ s⁻¹.
The same measure, in the same setting: for `COc1ccc(Oc2cccc(C=C3CCN(C(=O)Nc4cccnn4)CC3)c2)c(C)n1` [Example 97, 4-{3-[(6-methoxy-2-methylpyridin-3-yl)oxy]benzylidene}-N-pyridazin-3-ylpiperidine-1-carboxamide] the value was 394 M⁻¹ s⁻¹.
In the case of `O=C(Nc1cccnc1)N1CCC(=Cc2cccc(Oc3ccc(OCC(F)(F)F)cc3)c2)CC1` [Example 99, N-pyridin-{3-yl-4-3-[4-(2,2,2-trifluoroethoxy)phenoxy]benzylidene}piperidine-1-carboxamide], the “hFAAH kinact/Ki” value was 1130 M⁻¹ s⁻¹.
`O=C(Nc1cccnn1)N1CCC(=Cc2cccc(Oc3ccc(OCC(F)(F)F)cc3)c2)CC1` [Example 100, N-pyridazin-3-yl-4-{3-[4-(2,2,2-trifluoroethoxy)phenoxy]benzylidene}piperidine-1-carboxamide]: the kinact/KI is 2000 M⁻¹ s⁻¹.
On the same count and under the same terms, for `COc1cccc2cnc(Oc3cccc(C=C4CCN(C(=O)Nc5cccnn5)CC4)c3)nc12` [Example 101, 4-{3-[(8-methoxyquinazolin-2-yl)oxy]benzylidene}-N-pyridazin-3-ylpiperidine-1-carboxamide] the value was 209 M⁻¹ s⁻¹; for `O=C(Nc1cccnn1)N1CCC(=Cc2cccc(Oc3ncc4cccnc4n3)c2)CC1` [Example 102, N-pyridazin-3-yl-4-[3-(pyrido[2,3-d]pyrimidin-2-yloxy)benzylidene]piperidine-1-carboxamide], 1390 M⁻¹ s⁻¹; for `O=C(Nc1cccnn1)N1CCC(=Cc2cccc(Oc3ncccn3)c2)CC1` [Example 103, N-pyridazin-3-yl-4-[3-(pyrimidin-2-yloxy)benzylidene]piperidine-1-carboxamide], 162 M⁻¹ s⁻¹.
Consider `COc1ccc(-c2cnc(Oc3cccc(C=C4CCN(C(=O)Nc5cccnn5)CC4)c3)nc2)cc1` [Example 104, 4-(3-{[5-(4-methoxyphenyl)pyrimidin-2-yl]oxy}benzylidene)-N-pyridazin-3-ylpiperidine-1-carboxamide], for which the kinact/KI stood at 105 M⁻¹ s⁻¹.
